Patent publication EP4206196A1, “PYRIMIDINE SUBSTITUTED DERIVATIVES AS TYK2 INHIBITORS” (Almirall S.A., priority 2021, dated 2023)

Columns and labels:
[1] = system: STAT1/3 through TYK2/JAK1; experiment: IFNa induced STAT phosphorylation in HEK293 cells (SIE-bla reporter gene); assay type: cell-based; conditions: Homo sapiens, HEK293; HEK293T-sie-bla cells, IFNa at EC80, 4 hours; read-out: Inhibition of IFNa induced STAT phosphorylation HEK293 cells IC50
Method in brief: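 Read-out was FRET from a β-lactamase reporter under a SIE promoter in HEK293T cells, with substrate added after a 4 h, 37°C co-incubation of compound and EC80 IFNa and left overnight in the dark. Compounds ran as 10-point 1/5 dilutions at 0.1% final DMSO; four-parameter log fit gave IC50.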

[2] = target: T1, TYK2 (JH2domain-pseudokinase) (Homo sapiens, UniProt P29597); experiment: TYK2 JH2 domain binding assay (KINOMEscan)
T1 construct: TYK2 (JH2domain-pseudokinase)-tagged T7 phage strains were prepared in an E. coli host derived from the BL21 strain; made in house; host or cells: E. coli BL21-derived host (T7 phage) or HEK-293 cells
T1 sequence (P29597 589-875 limits assumed): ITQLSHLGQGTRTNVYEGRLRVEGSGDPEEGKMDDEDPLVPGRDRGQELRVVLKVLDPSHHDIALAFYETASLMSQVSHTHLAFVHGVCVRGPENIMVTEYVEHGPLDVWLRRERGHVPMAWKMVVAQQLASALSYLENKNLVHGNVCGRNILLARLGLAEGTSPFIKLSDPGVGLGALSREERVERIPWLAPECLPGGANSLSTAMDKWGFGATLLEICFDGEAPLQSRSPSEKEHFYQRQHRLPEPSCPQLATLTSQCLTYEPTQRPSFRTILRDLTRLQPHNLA
Method in brief: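 Kd values come from nonlinear least-squares fits of 11-point 3-fold dilutions (mostly 30,000 nM top, lowered when Kd fell below 0.5 nM). Test compound competed with bead-bound biotinylated ligand for qPCR-tagged TYK2 pseudokinase (JH2) domain, shaken 1 h at room temperature, with about 1% final DMSO.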

| IC50 [1] | Kd [2] | SMILES |
| --- | --- | --- |
| 100 to 1000 nM | 0.2 to 1 nM | COc1c(Nc2cc(Nc3cc(C)ncn3)ncn2)cc(C)cc1-c1ncn(C)n1 [Example 104, 4-N-[2-methoxy-5-methyl-3-(1-methyl-1,2,4-triazol-3-yl)phenyl]-6-N-(6-methylpyrimidin-4-yl)pyrimidine-4,6-diamine] |
| < 10 nM | < 0.2 nM | Cc1cc(Nc2cc(Nc3ccc(C4CCCOC4)cc3N(C)S(C)(=O)=O)ncn2)nc(C)n1 (stereo not drawn) [Example 105, N-[2-[[6-[(2,6-dimethylpyrimidin-4-yl)amino]pyrimidin-4-yl]amino]-5-tetrahydropyran-3-yl-phenyl]-N-methyl-methanesulfonamide] |
| 10 to 100 nM | < 0.2 nM | Cc1cc(Nc2cc(Nc3ccc(C4CCOCC4)cc3N(C)S(C)(=O)=O)ncn2)nc(C)n1 [Example 106, N-[2-[[6-[(2,6-dimethylpyrimidin-4-yl)amino]pyrimidin-4-yl]amino]-5-tetrahydropyran-4-yl-phenyl]-N-methyl-methanesulfonamide] |
| < 10 nM | < 0.2 nM | Cc1cc(Nc2cc(Nc3ccc(C4CCCCO4)cc3N(C)S(C)(=O)=O)ncn2)nc(C)n1 (stereo not drawn) [Example 107, N-[2-[[6-[(2,6-dimethylpyrimidin-4-yl)amino]pyrimidin-4-yl]amino]-5-tetrahydropyran-2-yl-phenyl]-N-methyl-methanesulfonamide] |
| < 10 nM | < 0.2 nM | C=Cc1ccc(Nc2cc(Nc3cc(C)nc(C)n3)ncn2)c(N(C)S(C)(=O)=O)c1 [Example 108, N-[2-[[6-[(2,6-dimethylpyrimidin-4-yl)amino]pyrimidin-4-yl]amino]-5-vinyl-phenyl]-N-methyl-methanesulfonamide] |
| < 10 nM | < 0.2 nM | Cc1cc(Nc2cc(Nc3ccc(Cc4ccccc4)cc3N(C)S(C)(=O)=O)ncn2)nc(C)n1 [Example 109, N-[5-benzyl-2-[[6-[(2,6-dimethylpyrimidin-4-yl)amino]pyrimidin-4-yl]amino]phenyl]-N-methyl-methanesulfonamide] |
| 100 to 1000 nM | 1 to 10 nM | Cc1cc(Nc2cc(Nc3ccc(C4CCNC4)cc3N(C)S(C)(=O)=O)ncn2)nc(C)n1 (stereo not drawn) [Example 110, N-[2-[[6-[(2,6-dimethylpyrimidin-4-yl)amino]pyrimidin-4-yl]amino]-5-pyrrolidin-3-yl-phenyl]-N-methyl-methanesulfonamide] |
| 10 to 100 nM | < 0.2 nM | Cc1cc(Nc2cc(Nc3ccc(C4CCOC4)cc3N(C)S(C)(=O)=O)ncn2)nc(C)n1 (stereo not drawn) [Example 111, N-[2-[[6-[(2,6-dimethylpyrimidin-4-yl)amino]pyrimidin-4-yl]amino]-5-tetrahydrofuran-3-yl-phenyl]-N-methyl-methanesulfonamide] |
| 10 to 100 nM | < 0.2 nM | CN=S(C)(=O)c1ccccc1Nc1cc(Nc2cc(C)nc(C)n2)ncn1 (stereo not drawn) [Example 112, N6-(2,6-dimethylpyrimidin-4-yl)-N4-[2-(N,S-dimethylsulfonimidoyl)phenyl]pyrimidine-4,6-diamine] |
| < 10 nM | < 0.2 nM | CN=S(C)(=O)c1cc(-c2cnn(C)c2C)ccc1Nc1cc(Nc2cc(C)nc(C)n2)ncn1 (stereo not drawn) [Example 113, N4-[4-(1,5-dimethylpyrazol-4-yl)-2-(N,S-dimethylsulfonimidoyl)phenyl]-N6-(2,6-dimethylpyrimidin-4-yl)pyrimidine-4,6-diamine] |
| < 10 nM | < 0.2 nM | Cc1cc(Nc2cc(Nc3ccc(C4CCCO4)cc3N(C)S(C)(=O)=O)ncn2)nc(C)n1 (stereo not drawn) [Example 114, N-[2-[[6-[(2,6-dimethylpyrimidin-4-yl)amino]pyrimidin-4-yl]amino]-5-tetrahydrofuran-2-yl-phenyl]-N-methyl-methanesulfonamide] |
| < 10 nM | < 0.2 nM | COCc1ccc(Nc2cc(Nc3cc(C)nc(C)n3)ncn2)c(N(C)S(C)(=O)=O)c1 [Example 115, N-[2-[[6-[(2,6-dimethylpyrimidin-4-yl)amino]pyrimidin-4-yl]amino]-5-(methoxymethyl)phenyl]-N-methyl-methanesulfonamide] |
| 10 to 100 nM | 0.2 to 1 nM | CN=S(C)(=O)c1c(C)cccc1Nc1cc(Nc2cc(C)nc(C)n2)ncn1 (stereo not drawn) [Example 116, N6-(2,6-dimethylpyrimidin-4-yl)-N4-[2-(N,S-dimethylsulfonimidoyl)-3-methyl-phenyl]pyrimidine-4,6-diamine] |
| > 1000 nM | 1 to 10 nM | COc1cc(C2CCOC2)ccc1Nc1cc(Nc2cc(C)nc(C)n2)ncn1 (stereo not drawn) [Example 117, N4-(2,6-dimethylpyrimidin-4-yl)-N6-(2-methoxy-4-tetrahydrofuran-3-yl-phenyl)pyrimidine-4,6-diamine] |
| 10 to 100 nM | < 0.2 nM | Cc1cc(Nc2cc(Nc3ncccc3N(C)S(C)(=O)=O)ncn2)nc(C)n1 [Example 120, N-[2-[[6-[(2,6-dimethylpyrimidin-4-yl)amino]pyrimidin-4-yl]amino]-3-pyridyl]-N-methyl-methanesulfonamide] |
| 10 to 100 nM | < 0.2 nM | [2H]C([2H])([2H])N(c1cccnc1Nc1cc(Nc2cc(C)nc(C)n2)ncn1)S(C)(=O)=O [Example 121, N-[2-[[6-[(2,6-dimethylpyrimidin-4-yl)amino]pyrimidin-4-yl]amino]-3-pyridyl]-N-(trideuteriomethyl)methanesulfonamide] |
| 10 to 100 nM | < 0.2 nM | Cc1cc(Nc2cc(Nc3ncc(-c4nc(C(F)(F)F)n(C)n4)cc3N(C)S(C)(=O)=O)ncn2)nc(C)n1 [Example 122, N-[2-[[6-[(2,6-dimethylpyrimidin-4-yl)amino]pyrimidin-4-yl]amino]-5-[1-methyl-5-(trifluoromethyl)-1,2,4-triazol-3-yl]-3-pyridyl]-N-methyl-methanesulfonamide] |
| 10 to 100 nM | 1 to 10 nM | Cc1cc(Nc2cc(Nc3ncc(-c4ncn(C)n4)cc3N(C)S(C)(=O)=O)ncn2)nc(C)n1 [Example 123, N-[2-[[6-[(2,6-dimethylpyrimidin-4-yl)amino]pyrimidin-4-yl]amino]-5-(1-methyl-1,2,4-triazol-3-yl)-3-pyridyl]-N-methyl-methanesulfonamide] |
| 10 to 100 nM | 0.2 to 1 nM | Cc1cc(Nc2cc(Nc3ncc(-c4ccnn4C)cc3N(C)S(C)(=O)=O)ncn2)nc(C)n1 [Example 127, N-[2-[[6-[(2,6-dimethylpyrimidin-4-yl)amino]pyrimidin-4-yl]amino]-5-(2-methylpyrazol-3-yl)-3-pyridyl]-N-methyl-methanesulfonamide] |
| 100 to 1000 nM | < 0.2 nM | Cc1cc(Nc2cc(Nc3ncc(-c4nccn4C)cc3N(C)S(C)(=O)=O)ncn2)nc(C)n1 [Example 128, N-[2-[[6-[(2,6-dimethylpyrimidin-4-yl)amino]pyrimidin-4-yl]amino]-5-(1-methylimidazol-2-yl)-3-pyridyl]-N-methyl-methanesulfonamide] |
| 10 to 100 nM | < 0.2 nM | Cc1cc(Nc2cc(Nc3ncc(-c4cc(C)nn4C)cc3N(C)S(C)(=O)=O)ncn2)nc(C)n1 [Example 129, N-[5-(2,5-dimethylpyrazol-3-yl)-2-[[6-[(2,6-dimethylpyrimidin-4-yl)amino]pyrimidin-4-yl]amino]-3-pyridyl]-N-methyl-methanesulfonamide] |
| 100 to 1000 nM | 0.2 to 1 nM | Cc1cc(Nc2cc(Nc3ncc(-c4ncnn4C)cc3N(C)S(C)(=O)=O)ncn2)nc(C)n1 [Example 130, N-[2-[[6-[(2,6-dimethylpyrimidin-4-yl)amino]pyrimidin-4-yl]amino]-5-(2-methyl-1,2,4-triazol-3-yl)-3-pyridyl]-N-methyl-methanesulfonamide] |
| 10 to 100 nM | < 0.2 nM | Cc1cc(Nc2cc(Nc3ncc(-c4ccn(C)n4)cc3N(C)S(C)(=O)=O)ncn2)nc(C)n1 [Example 131, N-[2-[[6-[(2,6-dimethylpyrimidin-4-yl)amino]pyrimidin-4-yl]amino]-5-(1-methylpyrazol-3-yl)-3-pyridyl]-N-methyl-methanesulfonamide] |
| 100 to 1000 nM | 0.2 to 1 nM | COc1c(C)ccnc1Nc1cc(Nc2cc(C)nc(C)n2)ncn1 [Example 132, N4-(2,6-dimethylpyrimidin-4-yl)-N6-(3-methoxy-4-methyl-2-pyridyl)pyrimidine-4,6-diamine] |
| > 1000 nM | 0.2 to 1 nM | Cc1cc(Nc2cc(Nc3ncc(-c4nnc(C)n4C)cc3N(C)S(C)(=O)=O)ncn2)nc(C)n1 [Example 134, N-[2-[[6-[(2,6-dimethylpyrimidin-4-yl)amino]pyrimidin-4-yl]amino]-5-(4,5-dimethyl-1,2,4-triazol-3-yl)-3-pyridyl]-N-methyl-methanesulfonamide] |
| < 10 nM | < 0.2 nM | [2H]C([2H])([2H])N(c1cc(-c2nnc(C)n2C)cnc1Nc1cc(Nc2cc(C)nc(C)n2)ncn1)S(C)(=O)=O [Example 136, N-[2-[[6-[(2,6-dimethylpyrimidin-4-yl)amino]pyrimidin-4-yl]amino]-5-(4,5-dimethyl-1,2,4-triazol-3-yl)-3-pyridyl]-N-(trideuteriomethyl)methanesulfonamide] |
| 10 to 100 nM | < 0.2 nM | Cc1cc(Nc2cc(Nc3ncc(-c4ncc(C)n4C)cc3N(C)S(C)(=O)=O)ncn2)nc(C)n1 [Example 140, N-[5-(1,5-dimethylimidazol-2-yl)-2-[[6-[(2,6-dimethylpyrimidin-4-yl)amino]pyrimidin-4-yl]amino]-3-pyridyl]-N-methyl-methanesulfonamide] |
